Reference: PMC10569036

Test: shake flask on a mixture of 185; loss from the water phase only; LC-Orbitrap peak areas
Conditions: room

| log partition 1-octanol / HPLC water, unbuffered, traces of methanol / DMSO [log10] | log partition butyl acetate / HPLC water, unbuffered, traces of methanol / DMSO [log10] | log partition chloroform / HPLC water, unbuffered, traces of methanol / DMSO [log10] | log partition cyclohexane / HPLC water, unbuffered, traces of methanol / DMSO [log10] | log partition dichloromethane / HPLC water, unbuffered, traces of methanol / DMSO [log10] | log partition n-hexane / HPLC water, unbuffered, traces of methanol / DMSO [log10] | log partition n-octane / HPLC water, unbuffered, traces of methanol / DMSO [log10] | log partition n-undecane / HPLC water, unbuffered, traces of methanol / DMSO [log10] | log partition oleylalcohol / HPLC water, unbuffered, traces of methanol / DMSO [log10] | log partition toluene / HPLC water, unbuffered, traces of methanol / DMSO [log10] | SMILES |
| --- | --- | --- | --- | --- | --- | --- | --- | --- | --- | --- |
| 0.2475 | -0.01795 | 0.3491 | -0.1638 | 0.4156 | -0.1437 | -0.3242 | -0.3846 | 0.1237 | -0.03291 | C=C(C)C(=O)OCCOCCOC(=O)C(=C)C |
| 1.201 | 1.711 | 1.238 | -0.6663 | 1.437 | -0.7941 | -0.5719 | -1.115 | 1.559 | 0.5402 | CC(C)Nc1nc(N)nc(Cl)n1 |
| 1.148 | 1.223 | 0.6534 | 0.9109 | 1.238 | 0.4737 | 0.5004 | 0.1193 | 0.4709 | 1.159 | FC(F)C(F)(F)OCC(Cn1cncn1)c1ccc(Cl)cc1Cl (centres unmarked) |
| 1.103 | 0.744 | 0.6525 | -0.1972 | 0.6427 | -0.2041 | 0.07134 | 0.1833 | 0.9527 | 0.4176 | CCCCNC(=S)NCCCC |
| 0.06578 | -0.6544 | 0.08964 | -0.4267 | -0.4317 | -0.4698 | -0.4633 | -0.5006 | -0.3469 | -0.3594 | CC(C)(C)c1ccc(O)c(O)c1 |
| 0.2948 | -0.12 | 0.01457 | -0.1351 | 0.05615 | -0.1023 | -0.1158 | 0.0297 | 0.1091 | 0.1587 | C=CC(=O)OCC1CC2CC1C1CCC(COC(=O)C=C)C21 (centres unmarked) |
| 0.1434 | 0.1277 | 1.369 | -0.01168 | 1.153 | 0.1369 | -0.1323 | -0.3053 | -0.05327 | 0.5377 | Cc1ccc(N)c(S(=O)(=O)O)c1 |
| 1.602 | 1.673 | 1.568 | -1.037 | 1.105 | -1.408 | -1.192 | -1.316 | 0.8181 | 0.3445 | COC(=O)c1sccc1S(N)(=O)=O |
| 0.3863 | -0.3544 | -0.3218 | -1.47 | -0.9957 | -1.176 | -1.209 | -1.567 | -0.4024 | -0.8939 | Nc1nc(Cl)nc2c1ncn2[C@H]1C[C@H](O)[C@@H](CO)O1 |
| -0.1952 | 0.2434 | 1.267 | -1.812 | 1.869 | -1.862 | -1.749 | -1.056 | -0.5161 | -0.2331 | CN1COCN(Cc2cnc(Cl)s2)C1=N[N+](=O)[O-] |
| 1.119 | -0.08786 | -0.484 | -2.242 | -0.03133 | -1.802 | -2.665 | -0.9886 | 1.482 | 0.3117 | CCCCC(CC)C(=O)OCCOCCOCCOCCOC(=O)C(CC)CCCC (centres unmarked) |

| SMILES | log partition 1-octanol / HPLC water, unbuffered, traces of methanol / DMSO [log10] | log partition butyl acetate / HPLC water, unbuffered, traces of methanol / DMSO [log10] | log partition chloroform / HPLC water, unbuffered, traces of methanol / DMSO [log10] | log partition cyclohexane / HPLC water, unbuffered, traces of methanol / DMSO [log10] | log partition dichloromethane / HPLC water, unbuffered, traces of methanol / DMSO [log10] | log partition n-hexane / HPLC water, unbuffered, traces of methanol / DMSO [log10] | log partition n-octane / HPLC water, unbuffered, traces of methanol / DMSO [log10] | log partition n-undecane / HPLC water, unbuffered, traces of methanol / DMSO [log10] | log partition oleylalcohol / HPLC water, unbuffered, traces of methanol / DMSO [log10] | log partition toluene / HPLC water, unbuffered, traces of methanol / DMSO [log10] |
| --- | --- | --- | --- | --- | --- | --- | --- | --- | --- | --- |
| Cc1cc(SCc2sc(-c3ccc(C(F)(F)F)c(F)c3)nc2C)ccc1OCC(=O)O | -0.1342 | 0.8792 | 0.4425 | -1.06 | 0.6672 | -1.28 | -0.8266 | -1.326 | 0.4514 | -0.01784 |
| CCCCc1ccc(O)cc1 | -0.1262 | -0.005316 | -0.1217 | -0.5302 | 0.2438 | -0.849 | -0.6939 | -0.8247 | -0.3004 | -0.3739 |
| O=P(OC(CCl)CCl)(OC(CCl)CCl)OC(CCl)CCl | 0.3708 | 0.4116 | 0.2335 | 0.5355 | 0.1218 | 0.2465 | 0.2541 | 0.3474 | 0.1893 | 0.1777 |
